From ChEMBL document CHEMBL4387706, “Discovery of Novel Spiroindoline Derivatives as Selective Tankyrase Inhibitors” (J Med Chem, 2019)
Values after ≈ are worked out from the molar mass of the structure shown.

Key:
COLO 320DM = assay: cells; details: Homo sapiens, 96 h
Description: Antiproliferative activity against human COLO320DM cells assessed as inhibition of cell growth measured after 4 days by CellTiter-Glo assay

[1] = target: T1, Poly [ADP-ribose] polymerase tankyrase-1 (Homo sapiens, UniProt O95271)
T1 sequence (O95271 whole entry): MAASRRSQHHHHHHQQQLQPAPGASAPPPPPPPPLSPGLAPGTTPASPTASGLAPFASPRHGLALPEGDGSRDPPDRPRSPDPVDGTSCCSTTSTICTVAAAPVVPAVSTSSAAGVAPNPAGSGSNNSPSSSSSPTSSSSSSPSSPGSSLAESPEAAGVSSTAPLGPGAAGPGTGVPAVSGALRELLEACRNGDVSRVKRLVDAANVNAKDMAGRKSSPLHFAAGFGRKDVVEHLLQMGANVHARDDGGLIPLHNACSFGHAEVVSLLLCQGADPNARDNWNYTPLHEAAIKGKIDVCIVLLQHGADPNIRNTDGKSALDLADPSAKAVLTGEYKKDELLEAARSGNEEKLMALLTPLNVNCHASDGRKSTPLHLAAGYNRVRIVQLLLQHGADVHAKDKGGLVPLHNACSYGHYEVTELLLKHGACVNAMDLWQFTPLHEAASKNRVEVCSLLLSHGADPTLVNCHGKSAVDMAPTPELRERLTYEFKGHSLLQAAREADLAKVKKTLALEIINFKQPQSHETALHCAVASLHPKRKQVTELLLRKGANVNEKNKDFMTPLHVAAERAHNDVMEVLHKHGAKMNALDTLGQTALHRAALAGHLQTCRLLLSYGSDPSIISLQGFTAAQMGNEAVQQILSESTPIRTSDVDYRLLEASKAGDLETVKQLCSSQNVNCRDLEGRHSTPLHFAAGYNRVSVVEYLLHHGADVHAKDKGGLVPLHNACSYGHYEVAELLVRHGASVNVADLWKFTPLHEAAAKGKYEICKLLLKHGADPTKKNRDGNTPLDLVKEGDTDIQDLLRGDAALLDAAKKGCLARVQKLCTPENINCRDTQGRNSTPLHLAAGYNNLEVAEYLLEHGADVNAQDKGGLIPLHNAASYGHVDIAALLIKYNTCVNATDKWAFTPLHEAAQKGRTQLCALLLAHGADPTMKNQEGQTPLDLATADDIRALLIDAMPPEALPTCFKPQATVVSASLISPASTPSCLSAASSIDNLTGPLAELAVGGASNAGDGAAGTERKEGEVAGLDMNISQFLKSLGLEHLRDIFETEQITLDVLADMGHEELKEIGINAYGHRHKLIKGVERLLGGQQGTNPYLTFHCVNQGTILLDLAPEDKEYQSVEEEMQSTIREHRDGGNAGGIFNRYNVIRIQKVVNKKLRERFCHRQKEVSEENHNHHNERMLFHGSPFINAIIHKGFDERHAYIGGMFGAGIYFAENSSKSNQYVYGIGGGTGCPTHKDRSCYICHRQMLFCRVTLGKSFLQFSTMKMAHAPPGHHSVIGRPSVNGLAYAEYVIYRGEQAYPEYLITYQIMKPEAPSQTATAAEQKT
Description: Inhibition of recombinant human N-terminal TEV cleavage site-fused/FLAG-poly his-tagged TNKS SAM-PARP domain (1024 to 1327 residues) expressed in Escherichia coli assessed as reduction in auto-PARylation preincubated for 10 mins followed by biotinylated-NAD+ addition and measured after 45 mins by ELISA

[2] = target: T2, Poly [ADP-ribose] polymerase tankyrase-2 (Homo sapiens, UniProt Q9H2K2)
T2 sequence (Q9H2K2 whole entry): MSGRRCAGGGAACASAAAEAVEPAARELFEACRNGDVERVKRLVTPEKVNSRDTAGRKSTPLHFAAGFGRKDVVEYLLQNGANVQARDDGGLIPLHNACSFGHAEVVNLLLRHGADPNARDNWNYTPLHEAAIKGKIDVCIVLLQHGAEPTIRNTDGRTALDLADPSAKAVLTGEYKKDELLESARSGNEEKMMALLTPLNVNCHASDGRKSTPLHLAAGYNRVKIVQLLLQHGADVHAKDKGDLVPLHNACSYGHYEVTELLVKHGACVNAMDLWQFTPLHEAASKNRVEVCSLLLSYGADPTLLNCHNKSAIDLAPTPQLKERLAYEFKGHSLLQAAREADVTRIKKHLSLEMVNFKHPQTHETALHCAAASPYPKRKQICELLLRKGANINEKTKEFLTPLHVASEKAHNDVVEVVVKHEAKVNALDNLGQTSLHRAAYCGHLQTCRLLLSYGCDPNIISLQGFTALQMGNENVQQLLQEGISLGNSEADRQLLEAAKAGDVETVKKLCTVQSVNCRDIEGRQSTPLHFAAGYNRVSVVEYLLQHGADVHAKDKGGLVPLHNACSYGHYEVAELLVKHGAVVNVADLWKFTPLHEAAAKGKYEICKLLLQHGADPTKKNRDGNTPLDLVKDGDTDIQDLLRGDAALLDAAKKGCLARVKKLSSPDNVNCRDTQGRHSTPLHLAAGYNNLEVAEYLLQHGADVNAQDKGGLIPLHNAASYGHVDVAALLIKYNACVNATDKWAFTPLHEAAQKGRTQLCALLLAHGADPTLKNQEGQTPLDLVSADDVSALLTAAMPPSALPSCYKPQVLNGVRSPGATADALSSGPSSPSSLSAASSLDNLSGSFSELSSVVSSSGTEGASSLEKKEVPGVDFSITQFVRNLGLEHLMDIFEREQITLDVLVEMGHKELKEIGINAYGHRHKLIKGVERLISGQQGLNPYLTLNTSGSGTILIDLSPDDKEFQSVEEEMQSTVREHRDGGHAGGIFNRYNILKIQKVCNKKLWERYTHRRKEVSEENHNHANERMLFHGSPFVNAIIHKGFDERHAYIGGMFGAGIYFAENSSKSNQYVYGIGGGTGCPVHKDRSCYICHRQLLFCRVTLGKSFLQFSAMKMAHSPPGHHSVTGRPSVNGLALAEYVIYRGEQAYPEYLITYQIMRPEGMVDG
Description: Inhibition of recombinant human N-terminal TEV cleavage site-fused/FLAG-poly his-tagged TNKS2 SAM-PARP domain (613 to 1166 residues) expressed in Escherichia coli assessed as reduction in auto-PARylation preincubated for 10 mins followed by biotinylated-NAD+ addition and measured after 45 mins by ELISA

physchem = details: phosphate buffer, pH 7.4
Tankyrase 1/2 = target: T3, Tankyrase 1/2 (Homo sapiens, UniProt Q9H2K2+O95271)
T3 sequence (Q9H2K2 whole entry): T2 sequence (Q9H2K2 whole entry)
T3 sequence (O95271 whole entry): T1 sequence (O95271 whole entry)
Description: Inhibition of TNKS/TNKS2 (unknown origin) expressed in human DLD1 cells assessed as reduction in Wnt-signaling measured after 24 hrs by TCF-luciferase reporter gene assay

[3] = target: Poly [ADP-ribose] polymerase 1 (Homo sapiens, UniProt P09874)
Sequence of Poly [ADP-ribose] polymerase 1 (P09874 whole entry): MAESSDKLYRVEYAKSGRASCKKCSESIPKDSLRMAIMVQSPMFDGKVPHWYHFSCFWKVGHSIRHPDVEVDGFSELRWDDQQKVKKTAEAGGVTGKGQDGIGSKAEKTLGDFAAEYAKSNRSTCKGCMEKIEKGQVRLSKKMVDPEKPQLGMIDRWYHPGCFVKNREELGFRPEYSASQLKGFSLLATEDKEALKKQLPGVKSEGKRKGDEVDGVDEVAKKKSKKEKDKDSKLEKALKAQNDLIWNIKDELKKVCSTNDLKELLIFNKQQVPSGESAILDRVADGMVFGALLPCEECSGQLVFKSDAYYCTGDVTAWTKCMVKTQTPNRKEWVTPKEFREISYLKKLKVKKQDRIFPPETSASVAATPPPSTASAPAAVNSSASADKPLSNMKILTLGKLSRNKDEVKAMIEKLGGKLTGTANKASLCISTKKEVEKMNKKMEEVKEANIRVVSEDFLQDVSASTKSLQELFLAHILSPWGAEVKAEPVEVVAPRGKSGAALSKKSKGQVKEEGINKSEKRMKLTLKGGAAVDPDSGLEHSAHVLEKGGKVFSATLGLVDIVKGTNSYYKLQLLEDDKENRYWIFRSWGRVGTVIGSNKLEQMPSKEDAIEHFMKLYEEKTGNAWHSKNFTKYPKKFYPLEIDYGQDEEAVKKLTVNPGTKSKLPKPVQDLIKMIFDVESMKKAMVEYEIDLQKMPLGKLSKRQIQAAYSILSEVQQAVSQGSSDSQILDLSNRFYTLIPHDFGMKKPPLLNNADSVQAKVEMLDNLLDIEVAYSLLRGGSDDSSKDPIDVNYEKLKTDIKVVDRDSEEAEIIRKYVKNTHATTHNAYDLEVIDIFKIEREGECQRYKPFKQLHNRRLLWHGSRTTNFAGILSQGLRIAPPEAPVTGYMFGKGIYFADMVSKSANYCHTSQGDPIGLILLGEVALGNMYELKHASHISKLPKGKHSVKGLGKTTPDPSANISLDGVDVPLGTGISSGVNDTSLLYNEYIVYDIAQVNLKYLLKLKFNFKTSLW
Description: Inhibition of recombinant human PARP1 expressed in Escherichia coli assessed as reduction in auto-PARylation using histone as substrate measured after 45 mins in presence of biotinylated-NAD+ by ELISA

Compound	GI50 (COLO 320DM) [nM]	IC50 [1] [nM]	IC50 [2] [nM]	solubility at 1 h, 200 µM (physchem) [µg/mL]	IC50 (Tankyrase 1/2) [nM]	IC50 [3] [nM]
O=c1[nH]c(N2CCC3(CC2)CNc2cc(Cl)cc(Cl)c23)nc2c1CCCC2	7500	7.5	10.4	11 (≈ 27.1 µM)	609	–
COc1ccccc1N1CCN(C2=NC3CCCCCC3C(=O)N2)CC1 (stereo unspecified)	–	–	–	–	> 10000	–
O=C1Nc2cc(Cl)cc(Cl)c2C12CCN(c1nc3c(c(=O)[nH]1)CCCC3)CC2	21400	5.3	7.1	15.7 (≈ 37.4 µM)	533	–
O=c1[nH]c(N2CCC3(CC2)CNc2cccc(Cl)c23)nc2c1CCCC2	4900	6.4	5.3	2.6 (≈ 7.01 µM)	247	–
COc1ccccc1N1CCCN(c2nc3c(c(=O)[nH]2)CCCC3)CC1	41900	6010	–	69.6 (≈ 196 µM)	9144	> 20000
COc1ccccc1N1CCN(c2nc3c(c(=O)[nH]2)CC(F)(F)CC3)CC1	15500	19.4	65.5	0.8 (≈ 2.13 µM)	403	> 20000
COc1ccc(N2CCN(c3nc4c(c(=O)[nH]3)CCCC4)CC2)cc1	> 20000	35	45.5	4.6 (≈ 13.5 µM)	1294	> 20000
O=C1Nc2cc(Cl)ccc2C12CCN(c1nc3c(c(=O)[nH]1)CCCC3)CC2	19900	11.1	14.4	1.8 (≈ 4.68 µM)	623	–
Oc1nc(N2CCN(c3ccccc3)CC2)nc2c1CCCC2	–	135	58.9	4.9 (≈ 15.8 µM)	1536	–
O=c1[nH]c(N2CCC3(CC2)CNc2cccc(F)c23)nc2c1CCCC2	3300	4.4	2.8	4.2 (≈ 11.9 µM)	72.4	–
COc1ccccc1N1CCN(c2nc3c(c(=O)[nH]2)CSCC3)CC1	3800	2.5	2.3	0.5 (≈ 1.39 µM)	23.2	> 20000
COc1cccc(N2CCN(c3nc4c(c(=O)[nH]3)CSCC4)CC2)c1	7400	6.2	4.8	1.7 (≈ 4.74 µM)	148	> 20000
COc1ccccc1N1CCN(c2nc3c(c(=O)[nH]2)COCC3)CC1	17100	67.6	112	12.3 (≈ 35.9 µM)	1009	> 20000
N#Cc1cccc2c1C1(CCN(c3nc4c(c(=O)[nH]3)CCCC4)CC1)CN2	23600	9.9	18.5	69.2 (≈ 191 µM)	799	–
O=C1Nc2cccc(F)c2C12CCN(c1nc3c(c(=O)[nH]1)CCCC3)CC2	2300	5.8	4.7	3.1 (≈ 8.41 µM)	31.1	–
N#Cc1cccc2c1C1(CCN(c3nc4c(c(=O)[nH]3)CCCC4)CC1)C(=O)N2	20400	16.8	26.8	5.3 (≈ 14.1 µM)	496	–
O=c1[nH]c(N2CCC3(CC2)CNc2cc(Cl)ccc23)nc2c1CCCC2	6900	8.4	5.8	9.2 (≈ 24.8 µM)	818	–
COc1ccc(N2CCN(c3nc4c(c(=O)[nH]3)CC(F)(F)CC4)CC2)cc1	> 20000	79.6	36.4	1.1 (≈ 2.92 µM)	1971	> 20000
O=C1Nc2cccc(Cl)c2C12CCN(c1nc3c(c(=O)[nH]1)CCCC3)CC2	5000	10.2	4.9	2.8 (≈ 7.28 µM)	21.5	–
O=c1[nH]c(N2CCC3(CC2)CNc2cc(F)cc(F)c23)nc2c1CCCC2	5200	5.4	3.3	6.3 (≈ 16.9 µM)	110	–
O=C1Nc2cccc(Br)c2C12CCN(c1nc3c(c(=O)[nH]1)CCCC3)CC2	8800	5.8	13.4	1.9 (≈ 4.43 µM)	91.2	–
COc1ccccc1N1CCN(c2nc3c(c(=O)[nH]2)CC(C)(C)CC3)CC1	–	> 20000	> 20000	2.4 (≈ 6.51 µM)	> 10000	–
O=C1Nc2cc(F)ccc2C12CCN(c1nc3c(c(=O)[nH]1)CCCC3)CC2	15000	11	12	62.9 (≈ 171 µM)	369	–
O=c1[nH]c(N2CCC3(CC2)CNc2cccc(Br)c23)nc2c1CCCC2	10400	16	15.6	8.9 (≈ 21.4 µM)	454	–
COc1ccccc1N1CCN(c2nc3c(c(=O)[nH]2)CC(C)CC3)CC1 (stereo unspecified)	–	1350	3480	1.8 (≈ 5.08 µM)	7282	–
O=C1Nc2cc(F)cc(F)c2C12CCN(c1nc3c(c(=O)[nH]1)CCCC3)CC2	4200	6.4	7.5	0.8 (≈ 2.07 µM)	43.9	–
COc1ccccc1N1CCC(c2nc3c(c(=O)[nH]2)CCCC3)CC1	19600	14300	6420	–	5401	–
COc1ccccc1N1CCN(c2nc3c(c(=O)[nH]2)CNCC3)CC1	–	7780	6980	66.4 (≈ 194 µM)	> 10000	–
O=c1[nH]c(N2CCC3(CC2)CNc2cc(F)ccc23)nc2c1CCCC2	10300	16.7	7.6	3.2 (≈ 9.03 µM)	657	–
COc1ccccc1N1CCN(c2nc3c(c(=O)[nH]2)CN(C)CC3)CC1	–	> 20000	> 20000	69.7 (≈ 196 µM)	> 10000	–
